The source of these data is ChEMBL document CHEMBL3638971, “Fused pyrimidines” (2015).

pIC50: −log10 of the molar value. Where “and” joins values, the source holds several entries; their conditions need not be identical. Equal values may be shown once.

The pIC50 is the negative decadic logarithm of the IC50, by convention in mol/L.

Assay [1] deals with RAC-beta serine/threonine-protein kinase (Homo sapiens, UniProt P31751). As to the kind of experiment: TR-FRET Assay: Akt2 inhibitory activity of compounds of the present invention was quantified employing the Akt2 TR-FRET assay as described in the following paragraphs.His-tagged human recombinant kinase full-length Akt2 expressed in insect cells and activated by PDK1 was purchased form Invitrogen (part number PV 3975). As substrate for the kinase reaction the biotinylated peptide biotin-Ahx- KKLNRTLSFAEPG (C-terminus in amide form) was used which can be purchased e.g. from the company Biosynthan GmbH (Berlinn-Buch, Germany). For the assay 50 nl of a 10Ofold concentrated solution of the test compound in DMSO was pipetted into a black low volume 384well microtiter plate (Greiner Bio- One, Frickenhausen, Germany), 2 ul of a solution of Akt2 in assay buffer [50 mM TRIS/HCI pH 7.5, 5 mM MgCI2, 1 mM dithiothreitol, 0.02% (v/v) Triton X-100 (Sigma)] were added and the mixture was incubated for 15 min at 22C to allow pre-binding of the test compounds to the enzyme before the start of the kinase reaction.
RAC-beta serine/threonine-protein kinase, sequence (P31751 whole entry): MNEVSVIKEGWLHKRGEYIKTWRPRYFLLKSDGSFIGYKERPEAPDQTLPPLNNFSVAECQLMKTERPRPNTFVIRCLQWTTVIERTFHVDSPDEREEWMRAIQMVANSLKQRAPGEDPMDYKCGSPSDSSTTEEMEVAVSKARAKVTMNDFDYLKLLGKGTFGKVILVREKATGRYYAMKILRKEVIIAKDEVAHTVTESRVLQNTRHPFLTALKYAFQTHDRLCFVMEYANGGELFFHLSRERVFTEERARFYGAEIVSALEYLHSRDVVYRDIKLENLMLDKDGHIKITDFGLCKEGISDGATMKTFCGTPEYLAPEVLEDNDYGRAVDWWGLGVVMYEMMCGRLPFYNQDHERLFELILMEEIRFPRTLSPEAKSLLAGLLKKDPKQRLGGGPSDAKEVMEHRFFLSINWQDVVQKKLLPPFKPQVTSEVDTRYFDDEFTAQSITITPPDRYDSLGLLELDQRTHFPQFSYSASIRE

In assay [2] the target is RAC-alpha serine/threonine-protein kinase (Homo sapiens, UniProt P31749). As to the kind of experiment: TR-FRET Assay: Akt1 inhibitory activity of compounds of the present invention may be quantified0 employing the Akt1 TR-FRET assay as described in the following paragraphs. His-tagged human recombinant kinase full-length Akt1 expressed in insect cells was purchased form Invitrogen (part number PV 3599). As substrate for the kinase reaction the biotinylated peptide biotin-Ahx-KKLNRTLSFAEPG (C-terminus in am- ide form) was used which can be purchased e.g. from the company Biosynthan GmbH (Berlin-Buch, Germany).For the assay 50 nl of a IOOfold concentrated solution of the test compound in DMSO was pipetted into a black low volume 384well microtiter plate (Greiner Bio- One, Frickenhausen, Germany), 2 ul of a solution of Akt1 in assay buffer [50 mM TRIS/HCI pH 7.5, 5 mM MgCI2, 1 mM dithiothreitol, 0.02% (v/v) Triton X-100 (Sigma)] were added and the mixture was incubated for 15 min at 22C to allow pre-binding of the test compounds to the enzyme before the start of the kinase reaction. Background: TR-FRET usually uses a lanthanide donor and a delayed reading to cut background.
RAC-alpha serine/threonine-protein kinase, sequence (P31749 whole entry): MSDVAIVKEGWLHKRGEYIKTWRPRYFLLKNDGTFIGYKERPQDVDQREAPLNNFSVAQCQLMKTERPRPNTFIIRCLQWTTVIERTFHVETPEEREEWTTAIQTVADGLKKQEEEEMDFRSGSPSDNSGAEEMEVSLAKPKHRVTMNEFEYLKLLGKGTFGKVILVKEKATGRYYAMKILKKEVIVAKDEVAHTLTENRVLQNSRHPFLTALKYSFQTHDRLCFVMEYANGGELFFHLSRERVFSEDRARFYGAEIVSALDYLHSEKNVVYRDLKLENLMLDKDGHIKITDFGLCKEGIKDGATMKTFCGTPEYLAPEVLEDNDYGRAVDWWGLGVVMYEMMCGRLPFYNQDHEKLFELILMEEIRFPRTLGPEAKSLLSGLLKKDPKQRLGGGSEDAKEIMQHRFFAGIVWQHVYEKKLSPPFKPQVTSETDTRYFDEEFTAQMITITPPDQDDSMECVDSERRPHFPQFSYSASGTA

In the case of `Cc1nc2nc(-c3ccc(CN4CC(c5n[nH]c(-c6ccccn6)n5)C4)cc3)c(-c3ccccc3)c(C)n2n1`, the negative-log IC50 (pIC50) was 7.77 in assay [1] and 8.15 in assay [2].
The matching figures for `Cc1cccc(-c2nc(C3CN(Cc4ccc(-c5nc6nc(C)nn6c(C)c5-c5ccccc5)cc4)C3)n[nH]2)n1`: 8.10 and 8.00.
The matching figures for `Cc1nc2nc(-c3ccc(CN4CC(c5n[nH]c(-c6ccccn6)n5)C4)cc3)c(-c3ccccc3)c(NC3CCC3)n2n1`: 6.43 and 7.49.
The matching figures for `CNc1c(-c2ccccc2)c(-c2ccc(CN3CC(c4n[nH]c(-c5cccc(C)n5)n4)C3)cc2)nc2nc(C)nn12`: 7.68 and 7.96.
For the molecule `Cc1nc2nc(-c3ccc(CN4CC(c5n[nH]c(-c6ccccn6)n5)C4)cc3)c(-c3ccccc3)c(NC(C)C)n2n1`, the pIC50 in assay [1] is 7.51 and 7.70; in assay [2] it was 7.82 and 8.05.
For `CSc1nc2nc(-c3ccc(CN4CC(c5n[nH]c(-c6ccccn6)n5)C4)cc3)c(-c3ccccc3)cn2n1`, the pIC50 in assay [1] was 7.00; in assay [2], 8.30.
Taken in the same sequence, the figures for `CSc1nc2nc(-c3ccc(CN4CCC(c5n[nH]c(-c6ccccn6)n5)CC4)cc3)c(-c3ccccc3)cn2n1` were 7.92 and 8.15.
For the molecule `CSc1nc2nc(-c3ccc(CN4CCC(c5n[nH]c(-c6cccc(C)n6)n5)CC4)cc3)c(-c3ccccc3)cn2n1`, the pIC50 in assay [1] is 8.40; in assay [2] it was 8.30.
Taken in the same sequence, the figures for `CS(=O)(=O)c1nc2nc(-c3ccc(CN4CCC(c5n[nH]c(-c6ccccn6)n5)CC4)cc3)c(-c3ccccc3)cn2n1` were 6.99 and 7.27.
